According to patent US20030138380A1, “Gas emulsions stabilized with fluorinated ethers having low Ostwald coefficients” (priority 1995, published 2003):

Columns and labels:
rabbit carotid artery = assay: Pulsed Doppler Signal Enhancement Rabbit Model (carotid artery); format: in vivo; conditions: Powder D, osmotic agent in mixture with nitrogen, injected dose 0.2 ml (ca. 1 mg dry powder per kg)
Procedure: (§1) One ml of the resulting microbubble suspension was injected intravenously into an approximately 3 kg rabbit instrumented to monitor the Doppler ultrasound signal of its carotid artery. A 10 MHz flow cuff (Triton Technology Inc., San Diego, Calif.; model ES-10-20) connected to a System 6 Doppler flow module (Triton Technology Inc.) fed the RF Doppler signal to a LeCroy 9410 oscilloscope (LeCroy, Chestnut Ridge, N.Y.). The root mean square (RMS) voltage of the signal computed by the oscilloscope was transferred to a computer and the resultant curve fitted to obtain peak echogenic signal intensity and half-life of the microbubbles in blood. Signals before contrast were less than 0.1 volts RMS.
as §1, with “half-ife” for “half-life”
as §1, with “RF doppler” for “RF Doppler”, “obtain Peak” for “obtain peak”
100 mg samples of the spray-dried powder were placed in 10-ml vials and gassed by perfluoroether-air mixture repeated evacuation-gassing cycles with the help of a syringe needle equipped with a three-way valve. As the filling gases, perfluorodimethyl ether (85%, Exfluor Research, Austin, Tex.), perfluoro(methylethyl ether) (80%, Exfluor Research, Austin, Tex.), perfluoro(diethyl ether) (90%, Strem Chemicals, Newburyport, Mass.), n-perfluoropropane and n-perfluorobutane (97%, PCR Incorporated) were used. […] Their echogenic properties in vivo were evaluated using a Pulsed Doppler Signal Enhancement Rabbit Model as described in Example III.
After reconstituting the powder with 10 ml of water, the bubbles were formed. Their echogenic properties in vivo were evaluated using a Pulsed Doppler Signal Enhancement Rabbit Model, as described in Example III, with the difference that the injected dose was reduced to 0.2 ml (ca. 1 mg of dry powder per kg of rabbit). FIGS. 2a, 2b, and 2c compare the decay of ultrasound signal over time for different filling gases at close partial pressures. The data are arranged in pairs so that microbubble preparations comprising perfluoroethers (thick lines) are compared directly with their perfluorocarbon analogues (thin lines). From the graphs it is evident that perfluoroether-filled bubbles have a longer persistence in the bloodstream than their fluorocarbon analogues.

[1] = 25 degrees C.; literature, or if not there calculated with the model of Lawson et al.; cited from earlier work
[2] = 25 degrees C.; first four values, as reported by Wilhelm, Battino and Wilcock; cited from earlier work
pig heart = assay: Second harmonic ultrasound imaging of the heart, pig model; format: in vivo, pigs; conditions: Powder D with osmotic agent-N2 mixture, 0.5 mL infused over 1 min via jugular vein
Procedure: After reconstituting the powder with 10 ml of water, the bubbles were formed.
Anesthetized pigs (14-16 kg) were fitted with indwelling catheters in the femoral artery and femoral and jugular veins for hemodynamic monitoring and contrast agent administration. Parasternal short-axis cardiac images at the level of the papillary muscles were obtained using an HP Sonos 2500 Ultrasound machine. Images were acquired in the Second Harmonic mode with a wide bandwidth linear phased array probe emitting at 2 MHz and receiving at 4 MHz. Imaging was intermittent (gated), triggered at end-diastole of every cardiac cycle. 0.5 mnL of reconstituted contrast agent was diluted with 0.5 mL sterile saline and infused over 1 min via the jugular vein.
FIGS. 3, 4, and 5 show a time course of ultrasound images of the heart following intravenous administration of contrast agents. […] FIGS. 4 and 5 show ultrasound images of the same hearts one minute and six minutes after infusion with the respective contrast agents. FIGS. 3a, 4a, and 5a show the ultrasound images of the heart following intravenous administration of contrast agent stabilized by perfluoropolyether. FIGS. 3b, 4b, and 5b show the ultrasound images of the heart following intravenous administration of contrast agent stabilized by perfluorohexane.

Compound | Time of decay of the Doppler signal to baseline, s, at ρF = 0.13 ± 0.03 atm (rabbit carotid artery) | PF, sat9 atm (saturated vapor pressure) [1] | further results
FC(F)(F)OC(F)(F)C(F)(F)OC(F)(F)F [CF3OC2F4OCF3, perfluoromonoglyme] | 400 s | 1.16 atm | –
FS(F)(F)(F)(F)F [SF6] | – | 23.5 atm | L × 10^6 (Ostwald coefficient) [2]: 5950
FC(F)(F)C(F)(F)C(F)(F)F [n-C3F8, n-perfluoropropane] | – | 6.8 atm | –
FC(F)(F)OC(F)(F)C(F)(F)OC(F)(F)C(F)(F)OC(F)(F)F [CF3O(CF2CF2O)2CF3, perfluorodiglyme] | >1800 s | 0.20 atm | –
FC(F)(F)OC(F)(F)OC(F)(F)OC(F)(F)OC(F)(F)F [CF3—(OCF2)3OCF3] | 1200 s | – | contrast of the heart one minute after injection (pig heart): Substantial contrast of the heart; tissue contrast of the heart at six minutes (pig heart): still a great deal of tissue contrast
nitrogen [Sample N2] | – | – | L × 10^6 (Ostwald coefficient) [2]: 15880
FC(F)(F)C(F)(F)F [Sample C2F6, C2F6] | – | 26.2 atm | –
FC(F)(F)C(F)(F)C(F)(F)OC(F)(F)C(F)(F)C(F)(F)F [Sample C3F7OC3F7, C3F7OC3F7] | – | 0.30 atm | –
FC(F)(F)OC(F)(F)C(F)(F)OC(F)(F)C(F)(F)F [CF3OC2F4OC2F5] | – | 0.55 atm | –
FC(F)(F)C(F)(F)OC(F)(F)C(F)(F)F [Sample C2F5OC2F5, perfluorodiethylether] | – | 1.9 atm | –
FC(F)(F)OC(F)(F)F [CF3OCF3, perfluorodimethylether] | – | 10.9 atm | –
O=O [Sample O2, oxygen] | – | – | L × 10^6 (Ostwald coefficient) [2]: 31110
FC(F)(F)F [CF4] | – | 159 atm | L × 10^6 (Ostwald coefficient) [2]: 5172
FC(F)(F)C(F)(F)C(F)(F)C(F)(F)C(F)(F)C(F)(F)F [n-C6F14, perfluorohexane] | 600 s | 0.27 atm | contrast of the heart one minute after injection (pig heart): Substantial contrast of the heart; tissue contrast of the heart at six minutes (pig heart): declined markedly
FC(F)(F)C(F)(F)C(F)(F)C(F)(F)C(F)(F)F [n-C5F12, perfluoropentane] | 400 s | 0.84 atm | –
FC(F)(F)C(F)(F)C(F)(F)C(F)(F)F [n-C4F10, perfluorobutane] | 300 s | 2.2 atm | –
